Substitutions are numbered along the chain they refer to.
Experiments:
[1] = biological target: GRG1 EPSP synthase variant EVO3, SEQ ID NO:37 (Q-loop core position 2 K, 10 G, 14 P, 16 L) (Pseudomonas putida, UniProt Q683S1, D85K/I93G/I99L/T97P); assay: EPSP synthase kinetics (AMPLEX Red fluorescence assay); format: biochemical; settings: in words
Experimental: (§3) Extracts were typically incubated with all assay components except shikimate-3-phosphate and AMPLEX™ Red for 5 minutes at room temperature, and assays were started by adding shikimate-3-phosphate and AMPLEX® Red.
(§4) Following full determination of kinetic parameters, the kinetic constants were determined as follows, adjusting for the quantity of protein determined by either antibody dot-blot analysis as described herein, or by Bradford Assay, as known in the art.

[2] = biological target: GRG1 EPSP synthase variant EVO4, SEQ ID NO:43 (Q-loop core position 2 N, 10 I, 14 A, 16 I) (Pseudomonas putida, UniProt Q683S1, D85N/T97A); assay: as above; format: biochemical; settings: in words
Experimental: as §3, §4

[3] = biological target: GRG1 EPSP synthase variant GRG1(EVO1), SEQ ID NO:28 (Q-loop core position 10 M, 12 L, 16 F) (Pseudomonas putida, UniProt Q683S1, I93M/I99F/M95L); assay: as above; format: biochemical; settings: in words, relative to GRG1
Experimental: as §3, §4

[4] = biological target: GRG1 EPSP synthase variant EVO2, SEQ ID NO:5 (clone L1-C; Q-loop core position 12 A) (Pseudomonas putida, UniProt Q683S1, M95A); assay: as above; format: biochemical; settings: in words, relative to GRG1
Experimental: as §3, §4

[5] = system: maize plants expressing GRG1(EVO5); assay: Glyphosate spray of transgenic maize plants; format: in vivo; settings: 14 mM glyphosate spray
Text: (§1) The grg1 (evo5) gene and grg1 (evo6) genes were each cloned into a plant expression vector suitable for Agrobacterium-mediated transformation, such vector containing at least (1) a promoter capable of expression in a plant cell, (2) a chloroplast peptide leader coding sequence, (3) a transcriptional terminator. The resulting clones, pAX4014 and pAX4032 respectively, were transferred to Agrobacterium as known in the art and described herein, and the resulting Agrobacterium strain used to develop transgenic maize callus and ultimately transgenic maize plants.
(§2) To transgenic plants were sprayed with glyphosate formulations of 14 mM glyphosate after adaptation to soil, and the resistance to the herbicide was scored after two weeks relative to non-transgenic controls.

[6] = system: maize plants expressing GRG1(EVO6); assay: Glyphosate spray of transgenic maize plants; format: in vivo; settings: 14 mM glyphosate spray
Text: as §1, §2

[7] = system: BL21*DE3 competent E. coli cells; assay: Screening for glyphosate resistance on plates (growth on M63+ agar with glyphosate); format: cell-based; settings: kanamycin, IPTG, glyphosate concentration as in value
Experimental: Library ligations were transformed into BL21*DE3 competent E. coli cells (Invitrogen). The transformations were performed according to the manufacturer's instructions with the following modifications. After incubation for 1 hour at 37° C. in SOC medium, the cells were sedimented by centrifugation (5 minutes, 1000×g, 4° C.). The cells were washed with 1 ml M63+, centrifuged again, and the supernatant decanted. The cells were washed a second time with 1 ml M63+ and resuspended in 200 ul M63+.
For selection of mutant GRG1 enzymes conferring glyphosate resistance in E. coli, the cells were plated onto M63+ agar medium plates containing 50 mM glyphosate, 0.05 mM IPTG (isopropyl-beta-D-thiogalactopyranoside), and 50 ug/ml kanamycin. M63+ medium contains 100 mM KH2PO4, 15 mM (NH4)2SO4, 50 μM CaCl2, 1 μM FeSO4, 50 μM MgCl2, 55 mM glucose, 25 mg/liter L-proline, 10 mg/liter thiamine HCl, sufficient NaOH to adjust the pH to 7.0, and 15 g/liter agar. The plates were incubated for 36 hours at 37° C.

[8] = system: EPSP synthase
Experimental: For any one glyphosate concentration, EPSP synthase activity was measured as a function of a broad range of PEP concentrations. The data were fit to the Michaelis-Menten equation using […]® software (Synergy Software) and used to determine the Km (Km apparent) of the EPSP synthase at that glyphosate concentration.

[9] = Experimental: DNA from grg1 (evo5) was mutagenized by PCR as known in the art, and cloned into pRSF1b (Invitrogen), and a library of mutagenized clones identified by virtue of growth on 50 mM glyphosate.

Molecule: C=C(OP(=O)(O)O)C(=O)O [PEP, phosphoenolpyruvic acid]
- Km for PEP ([1]; vs GRG1): virtually identical to GRG1
- Km for PEP [2]: reasonable, though somewhat elevated

Molecule: O=C(O)CNCP(=O)(O)O [glyphosate, N-phosphonomethylglycine]
- Ki for glyphosate ([1]; relative to GRG1): improved
- Ki for glyphosate ([2]; relative to GRG1): improved
- Ki for glyphosate [3]: improved
- Ki for glyphosate [4]: improved
- Seed Set [5]: YES
- Survival at 2 weeks post-spray [5]: YES
- Chlorosis ([5]; two weeks): NONE
- Stunting ([5]; two weeks): NONE
- Seed Set [6]: YES
- Survival at 2 weeks post-spray [6]: YES
- Chlorosis ([6]; two weeks): NONE
- Stunting ([6]; two weeks): NONE

Molecule: GRG1(EVO7): variant after mutagenesis of grg1 (evo6) in the Q-loop region (SEQ ID NO:64) (ITSEGVKPVAPFIKCGESGLSVRAFTPIVALSK; GRG1 variant - GRG1(4S-39))
- growth on glyphosate plates (glyphosate resistance in E. coli) [7]: glyphosate resistant
- kinetic properties / parameters (in words) [8]: further improved kinetic properties over GRG1(EVO6)

Molecule: GRG1(EVO8): variant after mutagenesis of grg1 (evo6) in the Q-loop region (SEQ ID NO:65) (ITSEGVKPVAPFIKCGESGLSGRMFPPIVALSK; GRG1 variant - GRG1(4S-60))
- growth on glyphosate plates (glyphosate resistance in E. coli) [7]: glyphosate resistant
- kinetic properties / parameters (in words) [8]: further improved kinetic properties over GRG1(EVO6)

B1: GRG1(EVO5): GRG1 Q-loop variant from Library 4 (SEQ ID NO:56) (protein)
chain: MKVTIQPGDLTGIIQSPASKSSMQRACAAALVAKGISEIINPGHSNDDKAARDIVSRLGARLEDQPDGSLQITSEGVKPVAPFIECGESGLSSRIFTPLVALSKEEVTIKGSGSLVTRPMDFFDEILPHLGVKVKSNQGKLPLVIQGPLKPADVTVDGSLSSQFLTGLLLAYAAADASDVAIKVTNLKSRPYIDLTLDVMKRFGLKTPENRNYEEFYFKAGNVYDETKMQRYTVEGDWSGGAFLLVAGAIAGPITVRGLDIASTQADKAIVQALMSANAGIAIDAKEIKLHPADLNAFEFDATDCPDLFPPLVALASYCKGETKIKGVSRLAHKESDRGLTLQDEFGKMGVEIHLEGDLMRVIGGKGVKGAEVSSRHDHRIAMACAVAALKAVGETTIEHAEAVNKSYPDFYSDLKQLGGVVSLNHQFNFS
modifications: GRG1 variant - GRG1(EVO5)
- Km / affinity for PEP (in words) [8]: good affinity for PEP
- glyphosate resistance (in words, kinetic analysis) ([8]; relative to GRG1): improved glyphosate resistance

B2: GRG1(5.2.B6): GRG1(EVO5) with V351 to A change (SEQ ID NO:58) (protein)
chain: B1 chain with I95L, N186K
modifications: GRG1 variant - GRG1(EVO7)
- soluble protein [9]: substantial increase in soluble protein

B3: GRG1(EVO6): GRG1(EVO5) with N186 to K change (SEQ ID NO:57) (protein)
chain: B1 chain with N186K
modifications: GRG1 variant - GRG1(EVO6)
- soluble protein [9]: substantial increase in soluble protein

Reference: patent US20070295251A1, “EPSP SYNTHASES: COMPOSITIONS AND METHODS OF USE” (Athenix Corporation, priority 2006, published 2007)
